According to patent US20240425478A1, “CYCLOPENTYLPYRAZOLE CDK2 INHIBITORS” (Genentech, Inc., priority 2021, published 2024):
Like-named read-outs stand apart in the source and are kept apart here.

Experiments:
[1] = test system: OVISE (JCRB1043, CCNE1-amplified); assay: OVISE EdU incorporation cell proliferation assay (CDK2-dependent); format: cell-based; settings: for IC50: cellular assay, read-out: CDK2 OVISE IC50; for FS SKOV-3/OVISE / FS p-H3/OVISE: fold selectivity; for FS p-H3/OVISE: cellular p-H3 IC50 over OVISE IC50; for CDK2 cell potency compared with Comparator E: CDK2 OVISE cellular assay data; for CDK2 OVISE IC50 fold change in potency versus Comparator D: Table R; for CDK2 OVISE IC50 fold change in potency versus Comparator E: Table S
In short: (§1)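 EdU incorporation (0.5 μM final, last 8 h) follows a 16 h compound exposure at 37 °C, 5% CO2 in RPMI plus 10% FBS, 0.5% DMSO. After fixation, imaging scores EdU-positive cells; a 4-parameter logistic fit of that fraction gives IC50.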

[2] = test system: HCT116 cells; assay: p-H3 HCT-116 mitotic release cell proliferation assay (cellular CDK1); format: cell-based; settings: Homo sapiens, HCT-116; Table O, cellular assay; read-out: CDK1 p-H3 IC50
In short: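 Phospho-Histone H3 (Ser10) in lysates was quantified by a two-antibody HTRF FRET read (≥2 h, room temperature). Before this, HCT116 cells held in mitosis by 16 h of 500 nM nocodazole were treated with compound for 4 h at 37 °C, 0.1% DMSO.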

[3] = test system: SKOV-3 (ATCC HTB-77); assay: SKOV-3 EdU incorporation cell proliferation assay (CDK4/6-dependent); format: cell-based; settings: for IC50: Homo sapiens, cellular assay, read-out: CDK4/6 SKOV-3 IC50; for selectivity for CDK2 over CDK4 compared with Comparator E: SKOV-3/OVISE fold-selectivity cellular assay data; for FS SKOV-3/OVISE: fold selectivity, cellular IC50 ratio
In short: as §1

[4] = molecular target: T1, Cyclin Dependent Kinase 2/Cyclin E1 (CDK2-cycE1) (Homo sapiens, UniProt P24941); assay: CDK2-cycE1 TR-FRET (LANCE) enzyme assay; format: biochemical; settings: for FS CDK1/CDK2 / FS CDK4/CDK2: fold selectivity; for CDK2 Ki fold change in potency versus Comparator D / CDK2 Ki fold change in potency versus Comparator E: in brackets after CDK2 Ki;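 on improvement in potency against CDK2 (Ki) over Comparator C: fold lower CDK2 Ki than comparator c (Ki 0.032 µM)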
T1 construct: purchased ProQinase 0050-0055-1
In short: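 Kinase reaction buffer: 50 mM HEPES pH 7.5, 10 mM MgCl2, 2 mM TCEP, 0.05% BGG, 0.01% Brij 35, with 30 min compound–enzyme pre-incubation.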

[5] = molecular target: T2, Cyclin Dependent Kinase 1/Cyclin A2 (CDK1-cycA2) (Homo sapiens, UniProt P06493); assay: CDK1-cycA2 TR-FRET (Lance) enzyme assay; format: biochemical; settings: for Ki: Table O, enzymatic assay; for FS CDK1/CDK2: fold selectivity, enzymatic Ki ratio
T2 construct: purchased ProQinase 0134-0054-1
T2 sequence (P06493 whole entry): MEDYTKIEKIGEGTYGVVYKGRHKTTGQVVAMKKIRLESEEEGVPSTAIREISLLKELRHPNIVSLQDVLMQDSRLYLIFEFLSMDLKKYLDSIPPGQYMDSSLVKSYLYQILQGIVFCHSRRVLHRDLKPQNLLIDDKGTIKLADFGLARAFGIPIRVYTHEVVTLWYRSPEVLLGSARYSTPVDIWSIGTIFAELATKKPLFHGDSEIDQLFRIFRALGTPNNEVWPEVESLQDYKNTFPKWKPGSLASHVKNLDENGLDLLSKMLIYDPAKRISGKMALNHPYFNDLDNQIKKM
T2 sequence (P20248 whole entry partner): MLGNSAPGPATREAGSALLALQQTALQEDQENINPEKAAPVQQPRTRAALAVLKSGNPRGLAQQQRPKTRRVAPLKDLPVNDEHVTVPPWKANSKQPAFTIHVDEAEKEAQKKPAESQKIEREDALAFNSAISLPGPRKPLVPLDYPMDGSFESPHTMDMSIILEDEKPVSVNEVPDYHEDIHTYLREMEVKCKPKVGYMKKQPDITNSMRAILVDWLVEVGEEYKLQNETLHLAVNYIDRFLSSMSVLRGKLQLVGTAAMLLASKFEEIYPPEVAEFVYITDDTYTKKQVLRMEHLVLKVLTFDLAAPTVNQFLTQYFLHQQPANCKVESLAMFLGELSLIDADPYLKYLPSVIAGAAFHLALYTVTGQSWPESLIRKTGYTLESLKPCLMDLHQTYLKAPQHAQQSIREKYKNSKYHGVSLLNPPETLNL
In short: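 TR-FRET (Lance) detection of phospho-4E-BP1 with a europium-labelled antibody after EDTA quench (15 mM final); signal taken as acceptor/donor ratio. Enzyme and compound were pre-incubated 30 min in HEPES pH 7.5 buffer with MgCl2, TCEP, BGG and Brij 35. Ki derived by Morrison fit.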

[6] = molecular target: T3, Cyclin Dependent Kinase 4/Cyclin D3 (CDK4-cycD3) (Homo sapiens, UniProt P11802); assay: CDK4-cycD3 TR-FRET (LANCE) enzyme assay; format: biochemical; settings: for Ki: Table O, enzymatic assay; for FS CDK4/CDK2: fold selectivity, enzymatic Ki ratio
T3 construct: purchased Carna Biosciences 04-105
T3 sequence (P11802 whole entry): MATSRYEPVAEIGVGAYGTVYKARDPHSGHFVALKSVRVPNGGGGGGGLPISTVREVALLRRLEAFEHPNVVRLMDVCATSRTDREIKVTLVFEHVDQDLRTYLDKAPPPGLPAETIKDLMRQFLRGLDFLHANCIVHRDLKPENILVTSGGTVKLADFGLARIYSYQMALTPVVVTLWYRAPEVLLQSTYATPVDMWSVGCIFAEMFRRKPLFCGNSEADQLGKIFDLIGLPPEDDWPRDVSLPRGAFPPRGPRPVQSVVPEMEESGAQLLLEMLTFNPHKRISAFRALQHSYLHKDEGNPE
T3 sequence (P30281 whole entry partner): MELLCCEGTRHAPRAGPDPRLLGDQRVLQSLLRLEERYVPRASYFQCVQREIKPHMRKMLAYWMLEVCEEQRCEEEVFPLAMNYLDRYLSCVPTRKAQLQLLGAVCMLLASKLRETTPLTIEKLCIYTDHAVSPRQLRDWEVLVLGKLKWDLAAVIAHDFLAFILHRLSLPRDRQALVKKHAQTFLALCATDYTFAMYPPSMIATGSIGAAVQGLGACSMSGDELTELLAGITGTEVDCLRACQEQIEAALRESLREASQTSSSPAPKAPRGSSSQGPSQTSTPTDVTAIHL
In short: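 Compound dose responses pre-incubated 30 min with enzyme mix in 50 mM HEPES pH 7.5, 10 mM MgCl2, 2 mM TCEP, 0.05% BGG, 0.01% Brij 35. Reaction quenched with EDTA (15 mM final); Eu-anti-phospho-4E-BP1 TR-FRET detection, acceptor/donor ratio. Ki derived by Morrison equation.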

[7] = Table O, cellular SKOV-3 IC50 over OVISE IC50
[8] = Table O, enzymatic assay, read-out: CDK2 Ki
[9] = Table O, enzymatic CDK1 Ki over CDK2 Ki
[10] = Table O, enzymatic CDK4 Ki over CDK2 Ki
[11] = read-out: CDK2 activity / potency (enzymatic assay)
[12] = Table R, enzymatic assay, read-out: CDK2 Ki
[13] = Table S, enzymatic assay, read-out: CDK2 Ki

| SMILES | IC50 ([1]; Table O) | FS SKOV-3/OVISE [1, 7] | FS p-H3/OVISE ([1]; Table O) | IC50 [2] | IC50 ([3]; SK-OV-3, Table O) | Ki [4, 8] | FS CDK1/CDK2 [4, 9] | FS CDK4/CDK2 [4, 10] | Ki [5] | Ki [6] | CDK2 OVISE IC50 fold change in potency versus Comparator D ([1]; in brackets after OVISE IC50) | CDK2 OVISE IC50 fold change in potency versus Comparator E ([1]; in brackets after OVISE IC50) | FS SKOV-3/OVISE increased over Comparator D, (+) sign ([3]; Table R) | FS SKOV-3/OVISE ([3]; Table R) | FS SKOV-3/OVISE ([3]; Table S) | Ki [4, 12] | CDK2 Ki fold change in potency versus Comparator D ([4]; Table R) | Ki [4, 13] | CDK2 Ki fold change in potency versus Comparator E ([4]; Table S) | FS CDK1/CDK2 ([5]; Table R) | further results |
| --- | --- | --- | --- | --- | --- | --- | --- | --- | --- | --- | --- | --- | --- | --- | --- | --- | --- | --- | --- | --- | --- |
| CC(C)NC(=O)O[C@@H]1CC[C@H](c2cc(Nc3cnccn3)n[nH]2)C1 [Example 2E, (1R,3S)-3-(3-(pyrazin-2-ylamino)-1H-pyrazol-5-yl)cyclopentyl isopropylcarbamate] | 16 nM | 8.1 | 0.88 | 14 nM | 130 nM | 0.13 nM | 65 | 57 | 8.4 nM | 7.4 nM |  |  |  |  |  |  |  |  |  |  | increased fold-selectivity SKOV-3/OVISE over Comparator C ([1]; Table Q, (+) sign after FS SKOV-3/OVISE): (+) (The (+) sign in Table Q signifies desirable increased fold-selectivity of the exemplary compounds over Comparator C); FS SKOV-3/OVISE ([1]; Table Q, cellular): 8.1; improvement in CDK2 OVISE cell potency over Comparator C ([1]; Table Q, in brackets after OVISE IC50, Comparator C 5.5 μM): 344 fold; IC50 ([3]; SK-OV-3, Table Q): 130 nM; improvement in potency against CDK2 (Ki) over Comparator C [4]: 246 fold; increased fold-selectivity CDK1/CDK2 over Comparator C ([4]; Table Q, (+) sign after FS CDK1/CDK2): (+) (The (+) sign in Table Q signifies desirable increased fold-selectivity of the exemplary compounds over Comparator C); increased fold-selectivity CDK4/CDK2 over Comparator C ([4]; Table Q, (+) sign after FS CDK4/CDK2): (+) (The (+) sign in Table Q signifies desirable increased fold-selectivity of the exemplary compounds over Comparator C); Ki ([4]; Table Q, enzymatic assay, read-out: CDK2 Ki): 0.13 nM; FS CDK1/CDK2 ([4]; Table Q, enzymatic): 65; FS CDK4/CDK2 ([4]; Table Q, enzymatic): 57; Ki [4, 11]: ≤ 1 nM |
| Cc1ncccc1Nc1cc([C@H]2CC[C@@H](OC(=O)NC(C)(C)C)C2)[nH]n1 [Example 4, (1R,3S)-3-(3-((2-methylpyridin-3-yl)amino)-1H-pyrazol-5-yl)cyclopentyl tert-butylcarbamate] | 20 nM | 46 | 1.5 | 30 nM | 920 nM | 0.22 nM | 110 | 160 | 25 nM | 34 nM | 190 fold | 8.5 fold | (+) | 46 | 46 | 0.22 nM | 12.3 fold | 0.22 nM | 2.4 fold | 110 | CDK2 cell potency compared with Comparator E [1]: more potent CDK2 cell inhibitors compared to Comparator E; selectivity for CDK2 over CDK4 compared with Comparator E [3]: increase in selectivity for CDK2 over CDK4; FS SKOV-3/OVISE increased over Comparator E, (+) sign ([3]; Table S): (+); Ki [4, 11]: ≤ 1 nM; FS CDK1/CDK2 increased over Comparator D, (+) sign ([5]; Table R): (+); FS CDK1/CDK2 increased over Comparator E, (+) sign ([5]; Table S): (+); FS CDK1/CDK2 ([5]; Table S): 110; FS CDK4/CDK2 increased over Comparator D, (+) sign ([6]; Table R): (+); FS CDK4/CDK2 ([6]; Table R): 160; FS CDK4/CDK2 increased over Comparator E, (+) sign ([6]; Table S): (+); FS CDK4/CDK2 ([6]; Table S): 160 |
| Cc1ncccc1Nc1cc([C@H]2CC[C@@H](OC(=O)NC3(C)COC3)C2)[nH]n1 [Example 8] | 320 nM | 47 | 1.8 | 560 nM | 15000 nM | 3.1 nM | 52 | 213 | 160 nM | 660 nM |  |  |  |  |  |  |  |  |  |  |  |
| CNC(=O)c1ccc(Nc2cc([C@H]3CC[C@@H](OC(=O)NC(C)(C)C)C3)[nH]n2)nc1 [Example 4E, (1R,3S)-3-(3-((5-(methylcarbamoyl)pyridin-2-yl)amino)-1H-pyrazol-5-yl)cyclopentyl tert-butylcarbamate] | 96 nM | 27 | 1.1 | 100 nM | 2600 nM | 1.6 nM | 47 | 53 | 75 nM | 84 nM | 40 fold | 1.8 fold | (+) | 27 | 27 | 1.6 nM | 1.7 fold | 1.6 nM | 0.3 fold | 47 | CDK2 cell potency compared with Comparator E [1]: more potent CDK2 cell inhibitors compared to Comparator E; IC50 ([3]; SK-OV-3, Table R): 2600 nM; IC50 ([3]; SK-OV-3, Table S): 2600 nM; selectivity for CDK2 over CDK4 compared with Comparator E [3]: increase in selectivity for CDK2 over CDK4; FS SKOV-3/OVISE increased over Comparator E, (+) sign ([3]; Table S): (+); FS CDK1/CDK2 increased over Comparator D, (+) sign ([5]; Table R): (+); FS CDK1/CDK2 ([5]; Table S): 47; FS CDK4/CDK2 increased over Comparator D, (+) sign ([6]; Table R): (+); FS CDK4/CDK2 ([6]; Table R): 53; FS CDK4/CDK2 increased over Comparator E, (+) sign ([6]; Table S): (+); FS CDK4/CDK2 ([6]; Table S): 53 |
| CC(C)(C)NC(=O)O[C@@H]1CC[C@H](c2cc(Nc3ccccn3)n[nH]2)C1 [Example 4G, (1R,3S)-3-(3-(pyridin-2-ylamino)-1H-pyrazol-5-yl)cyclopentyl tert-butylcarbamate] | 240 nM | 6.3 | 1.0 | 240 nM | 1500 nM | 1.7 nM | 44 | 16 | 75 nM | 27 nM | 16 fold | 0.7 fold | (+) | 6.3 | 6.3 | 1.7 nM | 1.6 fold | 1.7 nM | 0.3 fold | 44 | IC50 ([3]; SK-OV-3, Table R): 1500 nM; IC50 ([3]; SK-OV-3, Table S): 1500 nM; FS CDK1/CDK2 increased over Comparator D, (+) sign ([5]; Table R): (+); FS CDK1/CDK2 ([5]; Table S): 44; FS CDK4/CDK2 increased over Comparator D, (+) sign ([6]; Table R): (+); FS CDK4/CDK2 ([6]; Table R): 16; FS CDK4/CDK2 ([6]; Table S): 16 |
| Cc1nc(C#N)ccc1Nc1cc([C@H]2CC[C@@H](OC(=O)NC(C)(C)C)C2)[nH]n1 [Example 10D, (1R,3S)-3-(3-((6-cyano-2-methylpyridin-3-yl)amino)-1H-pyrazol-5-yl)cyclopentyl tert-butylcarbamate] | 46 nM | 61 | 2.1 | 97 nM | 2800 nM | 0.44 nM | 134 | 195 | 59 nM | 86 nM |  |  |  |  |  |  |  |  |  |  |  |
| CC(C)(C)NC(=O)O[C@@H]1CC[C@H](c2cc(Nc3cccnn3)n[nH]2)C1 [Example 4I, (1R,3S)-3-(3-(pyridazin-3-ylamino)-1H-pyrazol-5-yl)cyclopentyl tert-butylcarbamate] | 240 nM | 20 | 0.63 | 150 nM | 4900 nM | 2.5 nM | 18 | 13 | 45 nM | 33 nM | 16 fold | 0.7 fold | (+) | 20 | 20 | 2.5 nM | 1.1 fold | 2.5 nM | 0.2 fold | 18 | selectivity for CDK2 over CDK4 compared with Comparator E [3]: increase in selectivity for CDK2 over CDK4; FS SKOV-3/OVISE increased over Comparator E, (+) sign ([3]; Table S): (+); FS CDK1/CDK2 ([5]; Table S): 18; FS CDK4/CDK2 increased over Comparator D, (+) sign ([6]; Table R): (+); FS CDK4/CDK2 ([6]; Table R): 13; FS CDK4/CDK2 ([6]; Table S): 13 |
